Entries after “also recorded” stand apart in the source; their conditions may differ.
Assays:
Format in all cases: cell-based, human
[1] = tested on: Ishikawa cells; test: Nuclear changes by Höechst staining; conditions: 72 h, 5 μM Mito6_TPP, 10 μM Mito6_isoq.; for Nucleus shape and chromatin condensation (Höechst staining): 20 μM Mito6_picol.
Experimental: (§1) Morphological changes in all cell lines were evaluated by phase-contrast microscopy (Eclipse TS100 Inverted Microscope, Nikon, Tokyo, Japan) and Giemsa staining. […] The cells were plated in 24-well plates with coverslips using the densities of 1 × 10^5 cells/well in Ishikawa and Hec50co and 2.5 × 10^5 cells/well in COV434 and HFF-1. After adherence, the cells were treated with Mito6_TPP (5 μM), Mito6_picol. (20 μM), or Mito6_isoq. (10 μM) and incubated at 37 °C with 5% CO2 for 72 h. For Giemsa staining, the cells were fixated with paraformaldehyde 4% in Phosphate Buffered Saline (PBS) for 15 min, stained with Giemsa solution for 30 min, mounted with DPX, and observed through bright field microscopy. For Höechst staining, the cells were incubated with 0.5 μg/mL Höechst 33342 in PBS for 20 min in the dark, mounted in Fluoroshield, and observed under a fluorescence microscope equipped with an excitation filter with maximum transmission at 360/400 nm. In both stainings, the cells were observed using the microscope Eclipse CI (Nikon, Japan) and the images were processed with Nikon NIS Elements Image Software (Nikon, Japan).

[2] = tested on: COV434 cells; test: Nuclear changes by Höechst staining; conditions: COV434, 72 h, 5 μM Mito6_TPP, 10 μM Mito6_isoq.; for Nucleus shape and chromatin condensation (Höechst staining): 20 μM Mito6_picol.
Experimental: as §1

[3] = tested on: Hec50co cells; test: Nuclear changes by Höechst staining; conditions: 72 h, 5 μM Mito6_TPP, 10 μM Mito6_isoq.; for Nucleus shape and chromatin condensation (Höechst staining): 20 μM Mito6_picol.
Experimental: as §1

[4] = tested on: Ishikawa cells; test: Cell morphology by Giemsa staining; conditions: 72 h, 5 μM Mito6_TPP, 20 μM Mito6_picol., 10 μM Mito6_isoq.
Experimental: as §1

[5] = tested on: COV434 cells; test: Cell morphology by Giemsa staining; conditions: COV434, 72 h; 5 μM Mito6_TPP, 20 μM Mito6_picol., 10 μM Mito6_isoq.
Experimental: as §1

[6] = tested on: Ishikawa cells; test: Mitochondrial membrane potential (Δψm) assessment, DiOC6 probe; conditions: 48 h, 5 μM Mito6_TPP, 20 μM Mito6_picol., 10 μM Mito6_isoq.
Experimental: (§2) The Ishikawa, Hec50co, COV434, and HFF-1 cell lines were plated at a density of 5 × 10^4 cells/well in black 96-well plates. After 24 h, the cells were treated with Mito6_TPP (5 μM), Mito6_picol. (20 μM), or Mito6_isoq. (10 μM) and incubated at 37 °C with 5% CO2 for 48 h. The Δψm study was adapted from the work of Sivandzade et al.. The mitochondrial membrane-depolarizing agent carbonyl cyanide m-chlorophenylhydrazone (CCCP) (50 μM) was used as the positive control, being added to the cells for 20 min prior to the addition of the probe DiOC6 (100 nM) for 30 min at 37 °C in the dark. The fluorescence was then measured using a BioTek Synergy HTX Multi-Mode Microplate Fluorimeter equipped with BioTek Gen5 Data Collection and Analysis Software (BioTek Instruments, Winooski, VT, USA) (excitation: 488 nm; emission: 525 nm).

[7] = tested on: COV434 cells; test: as above; conditions: COV434, 48 h; 5 μM Mito6_TPP, 20 μM Mito6_picol., 10 μM Mito6_isoq.
Experimental: as §2

[8] = tested on: Hec50co cells; test: as above; conditions: 48 h, 5 μM Mito6_TPP, 20 μM Mito6_picol., 10 μM Mito6_isoq.
Experimental: as §2

| Compound | Nuclear fragmentation (Höechst staining) [1] | Nucleus shape and chromatin condensation (Höechst staining) [1] | Nuclear fragmentation (Höechst staining) [2] | Nucleus shape and chromatin condensation (Höechst staining) [2] | Nuclear fragmentation (Höechst staining) [3] | Nucleus shape and chromatin condensation (Höechst staining) [3] | Cell morphology changes (Giemsa staining) [4] | Cell morphology changes (Giemsa staining) [5] | Mitochondrial membrane potential (Δψm) change vs untreated cells [6] | Mitochondrial membrane potential (Δψm) change vs untreated cells [7] | Mitochondrial membrane potential (Δψm) change vs untreated cells [8] |
| --- | --- | --- | --- | --- | --- | --- | --- | --- | --- | --- | --- |
| O=C(/C=C/c1ccc(O)c(O)c1)NCCCCCCCCCC[P+](c1ccccc1)(c1ccccc1)c1ccccc1 [Mito6_TPP] | nuclear fragmentation visible | changes in the nucleus shape and the chromatin condensation | nuclear fragmentation visible | changes in the nucleus shape and the chromatin condensation | nuclear fragmentation visible | changes in the nucleus shape and the chromatin condensation | altered cell shapes and indications of chromatin condensation | altered cell shapes and indications of chromatin condensation | significant decrease | significant decrease | significant decrease |
| O=C(/C=C/c1ccc(O)c(O)c1)NCCCCCCCCCC[n+]1ccc2ccccc2c1 [Mito6_isoq.] | nuclear fragmentation visible | changes in the nucleus shape and the chromatin condensation | nuclear fragmentation visible | changes in the nucleus shape and the chromatin condensation | nuclear fragmentation visible | changes in the nucleus shape and the chromatin condensation | cell shape alterations | cell shape alterations; also recorded: indications of chromatin condensation | significant decrease | significant decrease | significant decrease |
| Cc1cc[n+](CCCCCCCCCCNC(=O)/C=C/c2ccc(O)c(O)c2)cc1 [Mito6_picol.] | – | did not induce any morphological changes | – | did not induce any morphological changes | – | did not induce any morphological changes | did not induce any morphological changes | did not induce any morphological changes | decrease | decrease | decrease only in the Ishikawa and COV434 cells |

Reference: PMC9030827, “In Vitro Effects of Mitochondria-Targeted Antioxidants in a Small-Cell Carcinoma of the Ovary of Hypercalcemic Type and in Type 1 and Type 2 Endometrial Cancer” (Biomedicines, 2022)
